Reference: patent US8192962B2, “Processes for detecting toxic substances” (Daikin Industries, Ltd., priority 2001, dated 2012)

Test system: Genes belonging to other category
Assay: DNA chip mRNA expression in yeast, genes belonging to other category (Table 9)
Assay type: cell-based, Saccharomyces cerevisiae S288C
Outline: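 Measured as treated-to-untreated fluorescence ratio on a full-genome yeast DNA chip. Cells (S288C, YPD, 25° C.) were exposed in log phase for two hours to one chemical, dosed to curb growth without killing.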

## C=CC=O [(14), acrolein]
Yeast gene YDR432W
  The level of expressed mRNA in the presence of chemical substance/The level of expressed mRNA in the absence of chemical substance: 0.5
Yeast gene YDR481C
  The level of expressed mRNA in the presence of chemical substance/The level of expressed mRNA in the absence of chemical substance: 0.9
Yeast gene YDR510W
  The level of expressed mRNA in the presence of chemical substance/The level of expressed mRNA in the absence of chemical substance: 1.9
Yeast gene YEL042W
  The level of expressed mRNA in the presence of chemical substance/The level of expressed mRNA in the absence of chemical substance: 0.6
Yeast gene YEL066W
  The level of expressed mRNA in the presence of chemical substance/The level of expressed mRNA in the absence of chemical substance: 1.9
Yeast gene YER009W
  The level of expressed mRNA in the presence of chemical substance/The level of expressed mRNA in the absence of chemical substance: 1.6
Yeast gene YER021W
  The level of expressed mRNA in the presence of chemical substance/The level of expressed mRNA in the absence of chemical substance: 1.3
Yeast gene YER025W
  The level of expressed mRNA in the presence of chemical substance/The level of expressed mRNA in the absence of chemical substance: 2.1
Yeast gene YER039C
  The level of expressed mRNA in the presence of chemical substance/The level of expressed mRNA in the absence of chemical substance: 1.2
Yeast gene YER072W
  The level of expressed mRNA in the presence of chemical substance/The level of expressed mRNA in the absence of chemical substance: 1.5
Yeast gene YER107C
  The level of expressed mRNA in the presence of chemical substance/The level of expressed mRNA in the absence of chemical substance: 1.1
Yeast gene YER130C
  The level of expressed mRNA in the presence of chemical substance/The level of expressed mRNA in the absence of chemical substance: 0.8
Yeast gene YER177W
  The level of expressed mRNA in the presence of chemical substance/The level of expressed mRNA in the absence of chemical substance: 0.9
Yeast gene YFL022C
  The level of expressed mRNA in the presence of chemical substance/The level of expressed mRNA in the absence of chemical substance: 3.1
Yeast gene YFL028C
  The level of expressed mRNA in the presence of chemical substance/The level of expressed mRNA in the absence of chemical substance: 1.6
Yeast gene YFL043C
  The level of expressed mRNA in the presence of chemical substance/The level of expressed mRNA in the absence of chemical substance: 1.5
Yeast gene YFR014C
  The level of expressed mRNA in the presence of chemical substance/The level of expressed mRNA in the absence of chemical substance: 1.0
Yeast gene YFR050C
  The level of expressed mRNA in the presence of chemical substance/The level of expressed mRNA in the absence of chemical substance: 1.6
Yeast gene YGL094C
  The level of expressed mRNA in the presence of chemical substance/The level of expressed mRNA in the absence of chemical substance: 0.9
Yeast gene YGL150C
  The level of expressed mRNA in the presence of chemical substance/The level of expressed mRNA in the absence of chemical substance: 1.0
Yeast gene YGL158W
  The level of expressed mRNA in the presence of chemical substance/The level of expressed mRNA in the absence of chemical substance: 2.3
Yeast gene YGL185C
  The level of expressed mRNA in the presence of chemical substance/The level of expressed mRNA in the absence of chemical substance: 1.5
Yeast gene YGL229C
  The level of expressed mRNA in the presence of chemical substance/The level of expressed mRNA in the absence of chemical substance: 1.0
Yeast gene YGR036C
  The level of expressed mRNA in the presence of chemical substance/The level of expressed mRNA in the absence of chemical substance: 1.0
Yeast gene YGR120C
  The level of expressed mRNA in the presence of chemical substance/The level of expressed mRNA in the absence of chemical substance: 1.0
Yeast gene YGR131W
  The level of expressed mRNA in the presence of chemical substance/The level of expressed mRNA in the absence of chemical substance: 2.0
Yeast gene YGR136W
  The level of expressed mRNA in the presence of chemical substance/The level of expressed mRNA in the absence of chemical substance: 1.1
Yeast gene YGR189C
  The level of expressed mRNA in the presence of chemical substance/The level of expressed mRNA in the absence of chemical substance: 0.9
Yeast gene YGR213C
  The level of expressed mRNA in the presence of chemical substance/The level of expressed mRNA in the absence of chemical substance: 1.0
Yeast gene YGR232W
  The level of expressed mRNA in the presence of chemical substance/The level of expressed mRNA in the absence of chemical substance: 2.1
Yeast gene YGR239C
  The level of expressed mRNA in the presence of chemical substance/The level of expressed mRNA in the absence of chemical substance: 1.4
Yeast gene YGR257C
  The level of expressed mRNA in the presence of chemical substance/The level of expressed mRNA in the absence of chemical substance: 0.9
Yeast gene YHR004C
  The level of expressed mRNA in the presence of chemical substance/The level of expressed mRNA in the absence of chemical substance: 0.8
Yeast gene YHR071W
  The level of expressed mRNA in the presence of chemical substance/The level of expressed mRNA in the absence of chemical substance: 1.6
Yeast gene YHR109W
  The level of expressed mRNA in the presence of chemical substance/The level of expressed mRNA in the absence of chemical substance: 1.5
Yeast gene YHR139C
  The level of expressed mRNA in the presence of chemical substance/The level of expressed mRNA in the absence of chemical substance: 2.5
Yeast gene YHR142W
  The level of expressed mRNA in the presence of chemical substance/The level of expressed mRNA in the absence of chemical substance: 1.2
Yeast gene YHR161C
  The level of expressed mRNA in the presence of chemical substance/The level of expressed mRNA in the absence of chemical substance: 1.0
Yeast gene YHR163W
  The level of expressed mRNA in the presence of chemical substance/The level of expressed mRNA in the absence of chemical substance: 1.5
Yeast gene YHR169W
  The level of expressed mRNA in the presence of chemical substance/The level of expressed mRNA in the absence of chemical substance: 1.1
Yeast gene YHR171W
  The level of expressed mRNA in the presence of chemical substance/The level of expressed mRNA in the absence of chemical substance: 1.0
Yeast gene YIL010W
  The level of expressed mRNA in the presence of chemical substance/The level of expressed mRNA in the absence of chemical substance: 1.7
Yeast gene YIL034C
  The level of expressed mRNA in the presence of chemical substance/The level of expressed mRNA in the absence of chemical substance: 1.1
Yeast gene YIL076W
  The level of expressed mRNA in the presence of chemical substance/The level of expressed mRNA in the absence of chemical substance: 1.4
Yeast gene YIL123W
  The level of expressed mRNA in the presence of chemical substance/The level of expressed mRNA in the absence of chemical substance: 0.3
Yeast gene YIL140W
  The level of expressed mRNA in the presence of chemical substance/The level of expressed mRNA in the absence of chemical substance: 0.9
Yeast gene YIL142W
  The level of expressed mRNA in the presence of chemical substance/The level of expressed mRNA in the absence of chemical substance: 1.0
